# In the NIST ThermoML archive (doi:10.1016/j.jct.2016.03.027):
# Numbers after ± are expanded uncertainties.
# Assay: wn = mass fraction of the nth substance listed
# Details: 298.15 K, 100 kPa, Liquid, Vibrating tube method
smiles,measurement,setting,value
O=C1OCCO1 [ethylene carbonate] + O,mass density,w1 = 0.1,1026.64 ± 1.2 kg/m3
same,mass density,w1 = 0.2,1056.71 ± 1.2 kg/m3
same,mass density,w1 = 0.3,1087.25 ± 1.2 kg/m3
same,mass density,w1 = 0.4,1118.6 ± 1.2 kg/m3
